Assay [1] relates to lymphocyte proliferation (BALB/c responder and mitomycin C treated C57BL/6 stimulator spleen cells). As to the kind of experiment: Mixed Lymphocyte Reaction (Test A), one-way MLR, tritiated thymidine incorporation. The settings on record: concentration causing 50% inhibition of lymphocyte proliferation, by linear interpolation, ≤ = active at this concentration but not tested at lower doses. Format: cell-based, mice. As for the experimental part:
A mixed lymphocyte reaction (MLR) occurs when lymphocytes from two genetically dissimilar individuals, or inbred strains of mice are cultured together. An MLR results in the activation and proliferation of lymphocytes, which is measured by the incorporation of radiolabelled thymidine into the cellular DNA synthesised during cell division. A 'one-way' MLR is used to determine the immunosuppressive activity of test compounds in vitro. In this reaction one population of spleen cells serves as the stimulator cells and is treated with mitomycin C to prevent cell division. Spleen cells from a second allogeneic population (responder cells) are untreated and when mixed with the stimulator cells are able to undergo division which is measured. The degree of proliferation is measured in the presence and absence of test compound to assess the immunosuppressive activity of the compound.
The techniques for carrying out lymphocyte proliferation assays including MLRs are well known, eg Bradley, pages 156-166, in Mishell and Shiigi, Eds. Selected Methods in Cellular Immunology (Freeman, San Francisco, 1980); and Battisto et al, methods in Enzymology 1987; 150: 83-91. Various slight modifications of these techniques are in use and that used herein is described in Gibb, Webber and Bowen, J Immunological Methods 1985; 81: 107-113.
Cell suspensions obtained from the spleens of female BALB/c and C57BL/6 strain mice of between 6 and 9 weeks of age were used as sources of responder and stimulator cells respectively. The mice were killed using a rising concentration of CO2 and the spleens removed aseptically and teased using a scalpel and forceps to produce a single cell suspension in Hanks balanced salt solution (HBSS). The suspensions were filtered through cell strainers (Falcon), sedimented by centrifugation and resuspended in Tris-buffered ammonium chloride pH 7.2 (medium D) to lyse the erythrocytes. The cells were sedimented again and washed twice in HBSS before resuspending in complete RPMI 1640 tissue culture medium (medium E). The C57BL/6 cells were resuspended to 9 mls per spleen and a solution of mitomycin C at 400 µg/ml in medium E added to give a final concentration of 40 µg/ml. After incubation of the C57BL/6 cells at 37°C for 30 minutes in an atmosphere of 5% CO2 and 95% air, the cells were sedimented and washed 3 times in medium E. Both cell suspensions were diluted in medium E to 5 x 10^6 cells/ml. 100µl of each of the responder and stimulator cell suspensions were aliquoted into the wells of 96 well flat bottom microtitre plates containing 50 µl of test compound at an appropriate dilution (initially 50 µM diluted in medium E from a stock solution at 100 mM in dimethyl sulphoxide) giving a final test compound concentration of 10 µM (final dilution). Compounds active at this concentration were tested at further final dilution of 1 µM, 0.1 µM and 0.01 µM and 0.001 µM to determine the concentration of test compound which causes 50% inhibition of the immune response (IC50). After four days of culture at 37°C in a humidified atmosphere of 5% CO2 and 95% air, 1 µCi of tritiated thymidine in 20 µl of medium E was added to each well and the plates incubated for a further 24 hours. Cells were then harvested onto Inotech G7 glass fibre filter mats using an Inotech cell harvester. The filters were transferred to vials to which 2 ml of Packard Emulsifier-Safe scintillation fluid was added and the radioactivity from the incorporated thymidine was counted in a Packard liquid scintillation counter. The counts per minute (CPM) reflect the degree of lymphocyte proliferation. The data were analysed to determine the percentage inhibition of lymphocyte proliferation by the test compound. […]

For assay [2], the system named is tumour necrosis factor-α (TNF-α). As to the kind of experiment: Mouse Tumour Necrosis Factor Test (Test B), mouse endotoxin shock model, serum TNF-α by ELISA. Format: in vivo, BALB/c mice. Conditions: minimum effective oral dose giving significant reduction in serum TNF-α of ≥35%, dosed 2 h before LPS i.p., ≤ = active at dose given but not tested at lower doses; for minimal effective dose: Mus musculus, read-out: MTNF:MED. An excerpt:
Preferred compounds of the present invention are active in an in-vivo test which determines the ability of the compounds to inhibit the release of tumour necrosis factor-α (TNF-α) in a mouse endotoxin shock model (Test B). This model is similar to that described by Zuckerman and Bendele (1989), Infection and Immunity 57 (10): p3009-3013.
Each compound of formula I was combined with a carrier of a solution of 1.5% v/v sorbitan esters under the trade name Tween 80 and 0.25% v/v cellosize in sterile water (100 µl) and was administered orally to a group of four BALB/c mice. The concentration of compound was such as to provide dosages selected from 100, 30, 10, 3, 1, 0.1 and 0.03 mg/kg. Two hours after such oral administration, lipopolysaccharide (LPS) (E. coli 0127:B8) (100 µg) in sterile water (0.2 ml) was administered intraperitoneally to the test mice.
A control group of eight BALB/c mice was treated in a similar manner as the test group except that no test compound was included with the carrier.
One hour after LPS administration the mice were killed and blood was collected by cardiac puncture. The blood was incubated at 20°C for 2 hours and the serum was separated from the clotted blood following centrifugation. Serum tumour necrosis factor-α (TNF-α) levels were assayed by an enzyme-linked immunosorbent assay (ELISA) and the concentration of TNF-α in each of the drug-treated groups was compared with the control group by one-way analysis of variance followed by a multiple t-test.
The ELISA was carried out by coating a 96-well vinyl assay plate (Costar) overnight at 4°C with 50 µl per well of 2 µg/ml hamster anti-mouse TNF monoclonal antibody in 0.1M sodium hydrogen carbonate buffer at pH 8.2. After washing the plate with phosphate buffered saline (PBS) containing 0.05% v/v sorbitan esters under the trade name Tween 20 (wash buffer), a blocking/dilution buffer (10% sheep serum in PBS containing 0.1% v/v sorbitan esters under the trade name Tween 20 (200 µl)) was aliquoted to each well and incubated at 37°C for 0.5 hours. After aspirating the blocking buffer, the serum samples and pure TNF (as a standard) diluted in blocking/dilution buffer, were added to the wells and incubated at 37°C for 2 hours. After washing with the wash buffer, a polyclonal rabbit anti-mouse TNF-α antibody in blocking/dilution buffer (100 µl of a 1 in 10,000 dilution) was added and incubated for a further 1.5 hours at 37°C. After further washes, anti-rabbit IgG peroxidase conjugate (100 µl of a 1 in 4000 dilution) was added and incubated at 37°C for 0.5 hours. After further washing, the substrate solution (100 µl per well of 0.1 mg/ml 3,3', 5,5'-tetramethylbenzidine dihydrochloride in 0.1M phosphate citrate buffer, pH 5.0, to which 2 µl of 30% hydrogen peroxide per 10 ml was added just before use) was added and the colour allowed to develop. The reaction was stopped by the addition of 1M sulphuric acid (25 µl) and the optical density read in a multichannel spectrophotometer at 450 nm. The mean TNF-α concentration was determined by comparison with the standard curve and the mean TNF-α concentration for each group compared with that produced by the control group. Drug treatments which cause a statistically significant reduction in TNF-α concentration of ≥35% at a single dose at 100 mg/kg or less were considered active.
In general terms: In an ELISA, binding on a coated surface is turned into a signal by an enzyme label.

Structures can show the parent of a compound that is named as a salt. A value given as a limit tells only on which side of the number the result lay.

One may read the IC50 as the concentration that gives 50% inhibition. Low values mean higher potency, high ones lower potency. “4-[2-(4-Methylimidazol-1-yl)ethyl]-1-(3-phenylpropyl)piperidine and 4-[2-(5-Methylimidazol-1-yl)ethyl]-1-(3-phenylpropyl)piperidine [Example 118]” came in with an IC50 in assay [1] of 1400 nM. Moreover, the “MTNF:MED” value in assay [2] was no more than 100 mg/kg. As to `Cl.Cl.O=C(CCc1ccccc1)N1CCCCC1CCn1ccnc1` (centres unmarked) [Example 52, 2-[2-(Imidazol-1-yl)ethyl]-1-(3-phenylpropionyl)piperidine dihydrochloride], the minimal effective dose in assay [2] was 100 mg/kg. For `O=C(CCc1ccccc1)N1CCCC(Cn2ccnc2)C1` (centres unmarked) [Example 53, 3-Imidazol-1-ylmethyl-1-(3-phenylpropionyl)-piperidine], the minimal effective dose in assay [2] turned out to be 30 mg/kg. In the case of `Cc1nccn1CCC1CCN(C(=O)CCc2ccc(Cl)cc2)CC1` [Example 57, 1-[3-(4-Chlorophenyl)propionyl]-4-[2-(2-methylimidazol-1-yl)ethyl]piperidine], the 50% inhibitory concentration (IC50) in assay [1] (Mus musculus) was no more than 1000 nM. Also, the minimal effective dose in assay [2] was determined as 100 mg/kg. In assay [1] (Mus musculus), `c1ccc(SCCN2CCC(CCn3ccnc3)CC2)cc1` [Example 86, 4-[2-(imidazol-1-yl)ethyl]-1-(2-phenylthioethyl)piperidine] gave a half-maximal inhibitory concentration (IC50) of 2600 nM. Besides, the minimal effective dose in assay [2] was no more than 10 mg/kg. `O=C(CCN1CCC(CCn2ccnc2)CC1)c1ccccc1` [Example 89, 4-[2-(Imidazol-1-yl)ethyl]-1-(3-oxo-3-phenylpropyl)piperidine]: the minimal effective dose in assay [2] was no more than 30 mg/kg. As for `O=C(c1ccccc1Cl)c1nccn1CCC1CCN(CCCc2ccccc2)CC1` [Example 92, 4-{2-[2-(2-Chlorobenzoyl)imidazol-1-yl]-ethyl}-1-(3-phenylpropyl)piperidine], the minimal effective dose in assay [2] was no more than 10 mg/kg. In assay [1] (Mus musculus), `c1ccc(CCCN2CCN(CCn3ccnc3)CC2)cc1` [Example 95, 1-[2-imidazol-1-yl)ethyl]-4-(3-phenylpropyl)piperazine trihydrochloride] had a half-maximal inhibitory concentration (IC50) of 2800 nM. Also, the minimal effective dose in assay [2] was no more than 3 mg/kg.

In assay [1] (Mus musculus), `c1ccc(CCCN2CCC(CCCn3ccnc3)CC2)cc1` [Example 104, 4-[3-(Imidazol-1-yl)propyl]-1-(3-phenylpropyl)piperidine] displayed an IC50 of no more than 1000 nM. Moreover, in assay [2], the minimal effective dose is no more than 100 mg/kg. `c1ccc(CCCN2CCC(CCn3cncn3)CC2)cc1` [Example 111, 1-(3-Phenylpropyl)-4-[2-(1H-1,2,4-triazol-1-yl)ethyl]piperidine] gave an IC50 in assay [1] (Mus musculus) of 7300 nM. Besides, the minimal effective dose in assay [2] is no more than 10 mg/kg. Turning to `c1ccc(CCCN2CCC(CCn3ncnn3)CC2)cc1` [Example 121, 1-(3-Phenylpropyl)-4-[2-(2H-tetrazol-2-yl)ethyl]piperidine], the 50% inhibitory concentration (IC50) in assay [1] (Mus musculus) is no more than 1000 nM. In addition, the minimal effective dose in assay [2] came to 100 mg/kg.

For the compound `COc1ccc(CCCN2CCC(CCn3ccnc3)CC2)cc1` [Example 124, 4-[2-(Imidazol-1-yl)ethyl]-1-[3-(4-methoxyphenyl)propyl]piperidine], the minimal effective dose in assay [2] is no more than 30 mg/kg.

With `c1ccc2c(c1)CCC(CN1CCC(CCn3ccnc3)CC1)C2` (centres unmarked) [Example 125, 4-[2-(Imidazol-1-yl)ethyl]-1-(1,2,3,4-tetrahydronaphth-2-ylmethyl)piperidine], half-maximal inhibition in assay [1] (Mus musculus) (IC50) required 2200 nM. For the same compound, in assay [2], the minimal effective dose worked out at 30 mg/kg.

The compound `CC(CCN1CCC(CCn2ccnc2)CC1)c1ccccc1` (centres unmarked) [Example 126, 4-[2-(Imidazol-1-yl)ethyl]-1-(3-phenylbutyl)piperidine] displayed an IC50 in assay [1] (Mus musculus) of 3700 nM. Besides, the minimal effective dose in assay [2] was no more than 100 mg/kg.
